Experimental data reported in paper PMC9775061 (2022).

How the values were obtained:
[1] = system: rGG-(CAG)6-CC (RNA, repeat) GGCAGCAGCAGCAGCAGCAGCC; test: fluorescence titration (turn-on, 463 nm, λex 300 nm); settings: 300 mM NaCl; 20 mM MOPS pH 7.0; 10 µM DB-TPE; apparent; 1:1 model
[2] = system: complementary (CAG)3/(CUG)3 RNA duplex (rGG-(CAG)3-CC and rGG-(CUG)3-CC) (RNA, duplex) GGCAGCAGCAGCC/GGCUGCUGCUGCC; test: fluorescence turn-on (λex 300 nm); settings: 300 mM NaCl; 20 mM MOPS pH 7.0; 10 µM DB-TPE, 1 eq. duplex; much weaker fluorescence, likely non-specific electrostatic

CN(C)CCCNC(=N)c1ccc(C(=N)NCCCN(C)Cc2cn(Cc3ccc(C(=C(c4ccccc4)c4ccccc4)c4ccccc4)cc3)nn2)cc1
Kd [1]: 2000 nM | binding [2]: weak
